From ChEMBL document CHEMBL1138986, “Novel bifunctional quinolonyl diketo acid derivatives as HIV-1 integrase inhibitors: design, synthesis, biological activities, and mechanism of action” (J Med Chem, 2006)

What was measured:
[1] = target: T1, Human immunodeficiency virus type 1 integrase (Human immunodeficiency virus 1, UniProt Q7ZJM1); assay: Inhibition of HIV1 integrase 3'-processing activity in presence of MgCl2
[2] = target: T1, Human immunodeficiency virus type 1 integrase; assay: Inhibition of HIV1 integrase strand transfer activity in presence of MgCl2 by plate-based electrochemiluminescent assay
[3] = target: T1, Human immunodeficiency virus type 1 integrase; assay: Inhibition of HIV1 integrase strand transfer activity in presence of MgCl2 by gel-based assay
[4] = target: T1, Human immunodeficiency virus type 1 integrase; assay: Inhibition of HIV1 integrase 3'-processing activity in presence of MnCl2
[5] = target: T1, Human immunodeficiency virus type 1 integrase; assay: Inhibition of HIV1 integrase strand transfer activity in presence of MnCl2
[6] = tested on: U-937; assay: Selectivity index (CC50/EC50); format: functional
[7] = tested on: Human immunodeficiency virus 1; assay: Antiviral activity against HIV1 3B; format: functional, organism-based; settings: Human immunodeficiency virus 1, 3B
[8] = tested on: U-937; assay: Cytotoxicity against U937 cell line; format: functional; settings: Homo sapiens

T1 sequence (Q7ZJM1 whole entry): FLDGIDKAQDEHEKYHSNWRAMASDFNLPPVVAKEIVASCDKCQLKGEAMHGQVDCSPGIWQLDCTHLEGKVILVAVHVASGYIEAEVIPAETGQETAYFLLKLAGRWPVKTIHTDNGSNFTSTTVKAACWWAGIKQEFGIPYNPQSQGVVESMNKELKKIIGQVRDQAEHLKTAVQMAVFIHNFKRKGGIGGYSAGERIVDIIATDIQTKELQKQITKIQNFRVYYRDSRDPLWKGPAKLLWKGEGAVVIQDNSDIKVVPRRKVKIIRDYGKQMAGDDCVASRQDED

IC50 [1] [µM]	IC50 [2] [µM]	IC50 [3] [µM]	IC50 [4] [µM]	IC50 [5] [µM]	EC50 [7] [µM]	SMILES	Selectivity index [6]	CC50 [8] [µM]
21	0.38	0.29	40	0.25	20	CCOC(=O)C(=O)/C=C(\O)c1ccc2c(c1)c(=O)c(/C(O)=C/C(=O)C(=O)OCC)cn2Cc1ccc(F)cc1	9.6	191
–	–	–	–	–	–	O=C(O)C(=O)/C=C(\O)c1ccc2c(c1)c(=O)c(/C(O)=C/C(=O)C(=O)O)cn2Cc1ccc(F)cc1	–	> 200
22	9.1	2.9	> 4.1	0.43	36.3	O=C(O)C(=O)/C=C(\O)c1ccc2ncc(/C(O)=C/C(=O)C(=O)O)c(O)c2c1	5.5	> 200
28	77	39	> 333	80	> 50	CCOC(=O)C(=O)/C=C(\O)c1ccc2ncc(/C(O)=C/C(=O)C(=O)OCC)c(O)c2c1	–	> 200
